Source: patent US8633183B2 (priority 2010, dated 2014)

Target: PI3Kalpha (Homo sapiens (Human), UniProt P42336)
Details: read-out: IC50 PI3K

Sequence of PI3Kalpha (P42336 whole entry, looked up): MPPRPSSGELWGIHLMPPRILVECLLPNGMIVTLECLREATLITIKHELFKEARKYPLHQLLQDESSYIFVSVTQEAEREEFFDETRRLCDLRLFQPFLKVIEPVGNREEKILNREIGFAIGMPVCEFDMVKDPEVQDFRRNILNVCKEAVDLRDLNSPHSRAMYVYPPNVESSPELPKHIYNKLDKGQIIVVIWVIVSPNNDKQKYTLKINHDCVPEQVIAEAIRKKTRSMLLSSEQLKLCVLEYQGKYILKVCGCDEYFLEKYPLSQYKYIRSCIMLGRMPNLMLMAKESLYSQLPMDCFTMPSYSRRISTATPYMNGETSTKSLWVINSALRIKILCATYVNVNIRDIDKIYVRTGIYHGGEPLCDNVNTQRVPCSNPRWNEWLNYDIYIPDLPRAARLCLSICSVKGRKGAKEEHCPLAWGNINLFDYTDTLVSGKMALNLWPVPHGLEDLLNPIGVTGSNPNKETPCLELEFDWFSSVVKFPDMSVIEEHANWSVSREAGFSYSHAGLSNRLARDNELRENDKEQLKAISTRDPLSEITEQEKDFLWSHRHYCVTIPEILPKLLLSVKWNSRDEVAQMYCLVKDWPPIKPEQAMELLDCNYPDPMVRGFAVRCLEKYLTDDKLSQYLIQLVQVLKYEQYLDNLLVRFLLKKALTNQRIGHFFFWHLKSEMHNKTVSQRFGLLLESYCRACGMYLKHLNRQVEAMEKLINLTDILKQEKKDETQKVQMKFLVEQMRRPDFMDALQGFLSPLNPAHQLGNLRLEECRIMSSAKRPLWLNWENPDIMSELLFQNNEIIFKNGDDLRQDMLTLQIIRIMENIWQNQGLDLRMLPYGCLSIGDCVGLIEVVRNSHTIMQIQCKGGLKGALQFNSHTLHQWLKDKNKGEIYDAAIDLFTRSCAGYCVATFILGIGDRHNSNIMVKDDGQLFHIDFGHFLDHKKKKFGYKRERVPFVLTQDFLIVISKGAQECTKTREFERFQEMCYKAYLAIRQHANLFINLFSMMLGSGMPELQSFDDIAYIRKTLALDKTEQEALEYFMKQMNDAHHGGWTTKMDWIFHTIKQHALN

| Compound | IC50 [µM] |
| --- | --- |
| CCc1ncnc(-c2ccc(C(=O)N3CCN(C(C)(C)C)CC3)c(OC)c2)c1C#Cc1ccc(N)nc1 [Example D-48] | 0.251 |
| CCc1ncnc(-c2ccc(C(=O)N3CCN(C(C)C)CC3)c(OC)c2)c1C#Cc1ccc(N)nc1 [Example D-50] | 0.211 |
| CCc1ncnc(-c2ccc(C(=O)N3CCN(CCOC)CC3)c(OC)c2)c1C#Cc1ccc(N)nc1 [Example D-52] | 0.134 |
| CCc1ncnc(-c2ccc(C(=O)N3CCN(CC)CC3)c(OC)c2)c1C#Cc1ccc(N)nc1 [Example D-53] | 0.213 |
| CCc1ncnc(-c2ccc(C(=O)N3CCN(CC(F)(F)F)CC3)c(OC)c2)c1C#Cc1ccc(N)nc1 [Example D-54] | 0.081 |
| CCc1ncnc(-c2ccc(C(=O)N3CCN(S(=O)(=O)CC)CC3)c(OC)c2)c1C#Cc1ccc(N)nc1 [Example D-55] | 0.036 |
| CCc1ncnc(-c2ccc(C(=O)N3CCN(C(C)=O)CC3)c(OC)c2)c1C#Cc1ccc(N)nc1 [Example D-56] | 0.073 |
| CCc1ncnc(-c2ccc(C(=O)N3CCN(CCO)CC3)c(OC)c2)c1C#Cc1ccc(N)nc1 [Example D-57] | 0.152 |
| CCc1ncnc(-c2ccc(C(=O)N3CCNC(=O)C3)c(OC)c2)c1C#Cc1ccc(N)nc1 [Example D-59] | 0.019 |
| CCc1ncnc(-c2ccc(C(=O)N3CCN(CCN(C)C)CC3)c(OC)c2)c1C#Cc1ccc(N)nc1 [Example D-60] | 0.546 |
| CCc1ncnc(-c2ccc(C(=O)N3CCN(CC(F)F)CC3)c(F)c2)c1C#Cc1ccc(N)nc1 [Example D-61] | 0.086 |
| CCc1ncnc(-c2ccc(C(=O)N3CCC(N4CCN(C)CC4)CC3)c(F)c2)c1C#Cc1ccc(N)nc1 [Example D-62] | 0.205 |
| CCc1ncnc(-c2ccc(C(=O)N3CCC(N4CCOCC4)CC3)c(F)c2)c1C#Cc1ccc(N)nc1 [Example D-63] | 0.234 |
| CCc1ncnc(-c2ccc(C(=O)N3CCN(C4CCN(C)CC4)CC3)c(F)c2)c1C#Cc1ccc(N)nc1 [Example D-64] | 0.198 |
| CCc1ncnc(-c2ccc(C(=O)NC3CCN(C)CC3)c(F)c2)c1C#Cc1ccc(N)nc1 [Example D-65] | 0.436 |
| CCc1ncnc(-c2ccc(C(=O)N3CCC(N4CCN(C5CCN(C)CC5)CC4)CC3)c(F)c2)c1C#Cc1ccc(N)nc1 [Example D-67] | 0.244 |
| CCc1ncnc(-c2ccc(C(=O)N(C)O)c(F)c2)c1C#Cc1ccc(N)nc1 [Example D-68] | 0.042 |
| CCc1ncnc(-c2ccc(C(=O)N3CCN(CC(F)(F)F)CC3)c(F)c2)c1C#Cc1ccc(N)nc1 [Example D-69] | 0.133 |
| CCc1ncnc(-c2ccc(C(=O)N3CCC(N4CCCCC4)CC3)c(F)c2)c1C#Cc1ccc(N)nc1 [Example D-70] | 0.49 |
| CCc1ncnc(-c2ccc(C(=O)N3CCC(O)CC3)c(F)c2)c1C#Cc1ccc(N)nc1 [Example D-71] | 0.085 |
| CCc1ncnc(-c2ccc(C(=O)N(C)CC3CCCN(C)C3)c(F)c2)c1C#Cc1ccc(N)nc1 [Example D-73] | 0.324 |
| CCc1ncnc(-c2ccc(C(=O)NCC3CCCN(C)C3)c(F)c2)c1C#Cc1ccc(N)nc1 [Example D-74] | 0.63 |
| CCc1ncnc(-c2ccc(C(=O)NCC3CCN(C)C3)c(F)c2)c1C#Cc1ccc(N)nc1 [Example D-75] | 0.335 |
| CCc1ncnc(-c2ccc(C(=O)N(C)CC3CCN(C)CC3)c(F)c2)c1C#Cc1ccc(N)nc1 [Example D-76] | 0.339 |
| CCc1ncnc(-c2ccc(C(=O)NCC3CCN(C)CC3)c(F)c2)c1C#Cc1ccc(N)nc1 [Example D-77] | 0.303 |
| CCc1ncnc(-c2ccc(C(=O)N3CCC(C(C)(C)O)CC3)c(F)c2)c1C#Cc1ccc(N)nc1 [Example D-79] | 0.17 |
| CCc1ncnc(-c2ccc(C(=O)N(C)CC(C)(C)O)c(F)c2)c1C#Cc1ccc(N)nc1 [Example D-81] | 0.084 |

| Compound | IC50 [µM] |
| --- | --- |
| CCc1ncnc(-c2ccc(C(=O)N3CCN(C(C)=O)CC3)c(F)c2)c1C#Cc1ccc(N)nc1C [Example D-82] | 0.146 |
| CCCCN1CCN(C(=O)c2ccc(-c3ncnc(CC)c3C#Cc3ccc(N)nc3)cc2F)CC1 [Example D-83] | 0.219 |
| CCc1ncnc(-c2ccc(C(=O)N3CCN(C4CCOCC4)CC3)c(F)c2)c1C#Cc1ccc(N)nc1 [Example D-84] | 0.127 |
| CCc1ncnc(-c2ccc(C(=O)N3CCN(CC(=O)N(C)C)CC3)c(F)c2)c1C#Cc1ccc(N)nc1 [Example D-85] | 0.115 |
| CCc1ncnc(-c2ccc(C(=O)N3CCN(C4CCS(=O)(=O)C4)CC3)c(F)c2)c1C#Cc1ccc(N)nc1 [Example D-86] | 0.095 |
| CCc1ncnc(-c2ccc(C(=O)N3CCN4CCCCC4C3)c(F)c2)c1C#Cc1ccc(N)nc1 [Example D-87] | 0.233 |
| CCc1ncnc(-c2ccc(C(=O)N3CCN(CC4CCCO4)CC3)c(F)c2)c1C#Cc1ccc(N)nc1 [Example D-88] | 0.118 |
| CCc1ncnc(-c2ccc(C(=O)N3CCN(S(=O)(=O)CC)CC3)c(F)c2)c1C#Cc1ccc(N)nc1 [Example D-89] | 0.052 |
| CCc1ncnc(-c2ccc(C(=O)N3CCN(C(C)=O)CC3)c(F)c2)c1C#Cc1ccc(N)nc1 [Example D-90] | 0.062 |
| CCc1ncnc(-c2ccc(C(=O)N3CCN(CCO)CC3)c(F)c2)c1C#Cc1ccc(N)nc1 [Example D-91] | 0.109 |
| CCc1ncnc(-c2ccc(C(=O)N3CCN(c4ccccn4)CC3)c(F)c2)c1C#Cc1ccc(N)nc1 [Example D-92] | 0.124 |
| CCc1ncnc(-c2ccc(C(=O)N3CCN(c4ccncc4)CC3)c(F)c2)c1C#Cc1ccc(N)nc1 [Example D-93] | 0.266 |
| CCc1ncnc(-c2ccc(C(=O)N3CCN(CC4CCCCC4)CC3)c(F)c2)c1C#Cc1ccc(N)nc1 [Example D-94] | 1.82 |
| CCc1ncnc(-c2ccc(C(=O)N3CCN(CCOC)CC3)c(F)c2)c1C#Cc1ccc(N)nc1 [Example D-95] | 0.145 |
| CCc1ncnc(-c2ccc(C(=O)N3CCN(C4CCCC4)CC3)c(F)c2)c1C#Cc1ccc(N)nc1 [Example D-96] | 0.151 |
| CCc1ncnc(-c2ccc(C(=O)N3CCN(Cc4ccccc4)CC3)c(F)c2)c1C#Cc1ccc(N)nc1 [Example D-97] | 0.476 |
| CCc1ncnc(-c2ccc(C(=O)N3CCN(c4ccccc4)CC3)c(F)c2)c1C#Cc1ccc(N)nc1 [Example D-98] | 0.199 |
| CCc1ncnc(-c2ccc(C(=O)N3CCN(CCN(C)C)CC3)c(F)c2)c1C#Cc1ccc(N)nc1 [Example D-99] | 0.452 |
| CCc1ncnc(-c2ccc(C(=O)N3CCC(N(C)C)CC3)c(F)c2)c1C#Cc1ccc(N)nc1 [Example D-100] | 0.347 |
| CCc1ncnc(-c2ccc(C(=O)N3CCC(O)(CN(C)C)CC3)c(F)c2)c1C#Cc1ccc(N)nc1 [Example D-103] | 0.47 |
| CCc1ncnc(-c2ccc(C(=O)N3CCC(CCO)CC3)c(F)c2)c1C#Cc1ccc(N)nc1 [Example D-104] | 0.125 |
| CCc1ncnc(-c2ccc(C(=O)N3CCN(CC4CC4)CC3)c(F)c2)c1C#Cc1ccc(N)nc1 [Example D-106] | 0.249 |
| CCc1ncnc(-c2ccc(C(=O)N3CCC(N4CCC(C)CC4)C3)c(F)c2)c1C#Cc1ccc(N)nc1 [Example D-108] | 0.313 |
| CCc1ncnc(-c2ccc(C(=O)N3CCCC(O)C3)c(F)c2)c1C#Cc1ccc(N)nc1 [Example D-110] | 0.064 |
| CCc1ncnc(-c2ccc(C(=O)N3CCC(N4CCCC4)CC3)c(F)c2)c1C#Cc1ccc(N)nc1 [Example D-112] | 0.323 |
| CCc1ncnc(-c2ccc(C(=O)N3CCNCC3)c(F)c2)c1C#Cc1ccc(N)nc1 [Example D-113] | 0.057 |
